In article PMC9540496 (Clinical Pharmacology and Therapeutics, 2022):
Marks after values point to notes of the source that are not given here. Blank lines part the entries; values can stand above or below the compound they belong to.

How the values were obtained:
[1] = cited from earlier work
P‐gp = assay: Anticipated effect of abrocitinib on digoxin, not formally evaluated; details: assuming complete P‐gp inhibition
[2] = Static perpetrator DDI risk assessment; details: for Theoretical gut concentration (Igut): 200 mg/250 mL
[3] = Safety across the three phase I pharmacokinetic studies; format: in vivo, human
[4] = Phase I crossover DDI study: rosuvastatin; format: in vivo, human
[5] = Endogenous biomarkers NMN; format: in vivo, human; details: for Tmax: median (range)
[6] = Phase I crossover DDI study: dabigatran etexilate; format: in vivo, human
[7] = Phase I crossover DDI study: metformin; details: metformin 500 mg alone; median (range)
clinical = details: both, human, plasma, oral, 500 mg
[8] = rosuvastatin 10 mg ± abrocitinib 200 mg QD
[9] = both, human, plasma, oral, 75 mg
[10] = dabigatran etexilate 75 mg + abrocitinib 200 mg vs alone
[11] = dabigatran etexilate 75 mg ± abrocitinib 200 mg single dose

Structure (SMILES): C[C@H]1O[C@@H](O[C@H]2[C@@H](O)C[C@H](O[C@H]3[C@@H](O)C[C@H](O[C@H]4CC[C@@]5(C)[C@H](CC[C@@H]6[C@@H]5C[C@@H](O)[C@]5(C)[C@@H](C7=CC(=O)OC7)CC[C@]65O)C4)O[C@@H]3C)O[C@@H]2C)C[C@H](O)[C@@H]1O [digoxin]
absolute bioavailability [1]: 75–78%

anticipated maximum increase in digoxin AUC (P‐gp): ≤ 30%
absorption rate constant (ka) [2]: 0.067 min⁻¹
fraction absorbed (fafg) [2]: 0.91
Theoretical gut concentration (Igut) [2]: 0.8 mg/mL
Theoretical gut concentration (Igut) ([2]; MW 323.4): 2.47 mM
0.1 × molar dose/250 mL ([2]; cutoff for intestinal transporters, 200 mg dose): 247 µM
50 × Cmax,u ([2]; cutoff for systemic transporters, unbound steady-state Cmax): 65 µM
Theoretical liver inlet concentration (Iin,max,u) ([2]; fu × (Cmax + ((fafg × ka × Dose/Qh)/B/P))): 9.1 µM
Structure (SMILES): CCCS(=O)(=O)N[C@H]1C[C@@H](N(C)c2ncnc3[nH]ccc23)C1 [abrocitinib, Abrocitinib]
serious or severe adverse events ([3]; all three pharmacokinetic studies, abrocitinib 200 mg with probe drugs): No serious or severe adverse events
tolerability ([3]; co‐administered with a single oral dose of dabigatran etexilate, rosuvastatin, or metformin, healthy volunteers): well‐tolerated

plasma exposure and CLr on co‐administration with abrocitinib ([4]; 90% CIs within acceptance range of 80–125%): unaffected
AUC(0-inf) ([4]; both, human, plasma, oral, 10 mg): 57.6 ng·h/mL
CL renal ([4]; both, human, urine and plasma, oral, 10 mg): 243 mL/min
Cmax ([4]; rosuvastatin 10 mg alone, geometric mean (geometric %CV)): 5.38 (53) ng/mL
AUCinf ratio of abrocitinib + substrate vs. substrate alone AGm (90% CI) [4, 8]: 1.02 (0.93–1.12) ^c
CLr ratio of abrocitinib + substrate vs. substrate alone AGm (90% CI) [4, 8]: 0.91 (0.83–1.01) ^c
Cmax ratio of abrocitinib + substrate vs. substrate alone AGm (90% CI) [4, 8]: 0.99 (0.86–1.14) ^c
Structure (SMILES): CC(C)c1nc(N(C)S(C)(=O)=O)nc(-c2ccc(F)cc2)c1/C=C/[C@@H](O)C[C@@H](O)CC(=O)O [Rosuvastatin, rosuvastatin]
increase of rosuvastatin AUC with ABCG2 421A/A vs. wild‐type ([1]; ABCG2 (BCRP) polymorphism): ~ 2 fold
parent drug recovered in urine ([1]; after oral dosing): 10%

AUC24 ratio of abrocitinib + metformin vs. metformin alone AGm (90% CI) ([5]; IBC): 0.95 (0.85–1.05) ^c
Cmax ratio of abrocitinib + metformin vs. metformin alone AGm (90% CI) ([5]; IBC): 0.95 (0.85–1.06) ^c
AUC24 ([5]; IBC in plasma, metformin 500 mg alone, geometric mean (geometric %CV), N = 12): 1187 (56) ng•hour/mL
Cmax ([5]; IBC, abrocitinib 200 mg + metformin 500 mg, geometric mean (geometric %CV)): 56.6 (55) ng/mL
Tmax ([5]; IBC, abrocitinib 200 mg + metformin 500 mg): 14.0 (0.00–23.8) hour
effect of abrocitinib co‐administration with metformin on AUC24 or Cmax ([5]; IBC, compared with metformin alone): did not alter
Cmax ([5]; IBC, metformin 500 mg alone, geometric mean (geometric %CV)): 59.7 (56) ng/mL
Tmax ([5]; IBC, metformin 500 mg alone): 16.0 (0.00–23.8) hour
Structure (SMILES): CC(C)C(=O)O[C@H](CC(=O)[O-])C[N+](C)(C)C [IBC, isobutyryl‐L‐carnitine]

Structure (SMILES): C=C[C@H]1C[N@@]2CC[C@H]1C[C@@H]2[C@@H](O)c1ccnc2ccc(OC)cc12 [quinidine]
increase of dabigatran exposures ([1]; P‐gp interaction, dabigatran labeling): 50–60%

Structure (SMILES): CCCN(CCC)S(=O)(=O)c1ccc(C(=O)O)cc1 [probenecid]
decrease in CLr of rosuvastatin or furosemide in the presence of probenecid ([1]; OAT3 index inhibitor, approximate five‐fold): ~80%

increase of plasma exposure on co‐administration with abrocitinib ([6]; abstract statement): ~ 50%
Cmax [6, 9]: 30.2 ng/mL
half-life [6, 9]: 8.93 ± 2.28 h
increase of AUCinf on co‐administration with abrocitinib [6, 10]: 53%
increase of Cmax on co‐administration with abrocitinib [6, 10]: 40%
AUCinf ratio of abrocitinib + substrate vs. substrate alone AGm (90% CI) [6, 11]: 1.53 (1.09–2.15)
Cmax ratio of abrocitinib + substrate vs. substrate alone AGm (90% CI) [6, 11]: 1.40 (0.92–2.13)
Structure (SMILES): [H]/N=C(/N)c1ccc(NCc2nc3cc(C(=O)N(CCC(=O)O)c4ccccn4)ccc3n2C)cc1 [Dabigatran, dabigatran]

Tmax [7]: 4.00 (1.00–4.00) hour
AUC(0-inf) (clinical): 5200 ng·h/mL
Cmax (clinical): 721 ng/mL
Structure (SMILES): CN(C)C(=N)N=C(N)N [Metformin, metformin]
